Structures can show the parent of a compound that is named as a salt.
How the values were obtained:
in vivo = assay: in vivo; set-up: species or system beagle dogs; settings: beagle, dog
Experimental: Objective of assay: The druggability of compounds was evaluated by measuring their pharmacokinetic properties in different animal species.
Assay Materials: C57BL6/J strain mice, Sprague-Dawley strain rats and beagle dogs.
The pharmacokinetic characteristics of the compound after intravenous and oral administration were assayed in animals using a standard protocol. In the assay, the candidate compound was prepared into a clear solution (intravenous injection) or a homogeneous suspension (oral administration) and administrated to the animal once. Whole blood samples were collected within 24 hours, and centrifuged at 3200 g for 10 minutes. The supernatant was separated to obtain a plasma sample. The blood concentration was quantitatively analyzed by LC-MS/MS analysis method, and pharmacokinetic parameters such as peak concentration, time to peak, clearance rate, half-life, and area under the drug-time curve were calculated.

plasma protein [1] = assay: Plasma protein binding rate (PPB), SD rats; type: in vitro ADME; settings: 2 μM, 4 hours dialysis
Experimental: (§1) 597 μL of blank plasma from CD-1 mice, SD rats, beagle dogs, cynomolgus monkeys and humans were weighed, and the working solution of the assay compound or the working solution of warfarin was added, so that the final concentration of the assay compound and warfarin in the plasma sample was 2 μM. The samples were mixed thoroughly. The final concentration of DMSO as an organic phase was 0.5%; 50 μL of the assay compound and warfarin plasma samples were pipetted into a sample receiving plate, and the corresponding volume of blank plasma or buffer was immediately added, so that the final volume of each sample well was 100 μL, and the volume ratio of plasma:dialysis buffer was 1:1, and then the stop solution was added to these samples. The samples were used as the To sample for recovery and stability determination. The assay compound and warfarin plasma samples were added to the dosing end of each dialysis well, and blank dialysis buffer was added to the receiving end corresponding to the dialysis well. Then the dialysis plate was sealed with a gas permeable membrane and placed in a humidified 5% CO2 incubator, and incubated with shaking at 37° C. and 100 rpm for 4 hours. […] After protein precipitation, all samples were analyzed by LC/MS/MS, and the free rate (% Unbound) of the compound was calculated by the following formula: […]

plasma protein [2] = assay: Plasma protein binding rate (PPB), humans; type: in vitro ADME; settings: Human plasma, 2 μM, 4 hours dialysis
Experimental: as §1

coronavirus OC43 = assay: Efficacy on suckling mice infected with coronavirus; type: in vivo, Suckling mice (C57BL6/J strain); settings: intraperitoneal, once a day day 0 to day 6
Experimental: Objective of assay: The in vivo antiviral activity of the compound against coronavirus was evaluated by observing the percentage of weight change and survival rate of the assay animals in a suckling mouse model infected with coronavirus (COV). The mouse infection model is widely used to determine the protective effect of the compound on virus-infected animals to reflect the antiviral activity of the compound.
Suckling mice (C57BL6/J strain) were inoculated with virus (coronavirus OC43) by intranasal drops on day 0, with an inoculation dose of 3500 p.f.u./mouse. From day 0 to day 6, the mice were treated with a vehicle (5% DMSO+40% polyethylene glycol 400+55% water) or 12.5 mpk or 25 mpk of the compound of the present disclosure for 7 consecutive days, once a day, by intraperitoneal injection, for a total of 7 times, with the first administration time being 2 hours before virus inoculation. The animals were continuously observed from day 0 to day 14, and the body weight, health and survival status were recorded.

`Cn1cnc(Cc2cn(Cc3cc(F)c(F)cc3F)c(Nc3cc4cn(C)nc4cc3Cl)nc2=O)n1` [Compound 4 hydrochloride] showed a Vd (in vivo; iv, 0.1 mg/kg) of 2.5 L/kg, a clearance (in vivo; iv, 0.1 mg/kg) of 7.2 mL/min/kg and a half-life (in vivo; iv, 0.1 mg/kg) of 6.2 h. The AUC (in vivo; iv, 0.1 mg/kg, AUC) was 0.504 µM·h, the AUC (in vivo; iv, 0.1 mg/kg, AUCfree) was 0.12 µM·h and the Cmax (in vivo; po, 0.5 mg/kg) was 270 nM. The Tmax (in vivo; po, 0.5 mg/kg) was 3 h, the bioavailability (in vivo; po, 0.5 mg/kg) was 121% and the half-life (in vivo; po, 0.5 mg/kg) was 9.5 h. The AUC (in vivo; po, 0.5 mg/kg, AUC) was 3.1 µM·h, the AUC (in vivo; po, 0.5 mg/kg, AUCfree) was 0.74 µM·h and the “PPB_Unbound (%)” value (plasma protein [1]) was 4.5%. The “PPB_Unbound (%)” value (plasma protein [2]) was 24.3%, the Survival rate (coronavirus OC43; 12.5 mpk, Day 1) was 100% and the “Weight changes (Percent of starting body weight)” value (coronavirus OC43; 12.5 mpk, Day 1) was 5.35 ± 0.58% of starting body weight. The Survival rate (coronavirus OC43; 12.5 mpk, Day 2) was 100%, the “Weight changes (Percent of starting body weight)” value (coronavirus OC43; 12.5 mpk, Day 2) was 14.57 ± 1.37% of starting body weight and the Survival rate (coronavirus OC43; 12.5 mpk, Day 3) was 100%. For the same compound, the “Weight changes (Percent of starting body weight)” value (coronavirus OC43; 12.5 mpk, Day 3) was 22.55 ± 1.37% of starting body weight, the Survival rate (coronavirus OC43; 12.5 mpk, Day 4) was 100% and the “Weight changes (Percent of starting body weight)” value (coronavirus OC43; 12.5 mpk, Day 4) was 30.95 ± 1.19% of starting body weight. For the same compound, the Survival rate (coronavirus OC43; 12.5 mpk, Day 5) was 100%, the “Weight changes (Percent of starting body weight)” value (coronavirus OC43; 12.5 mpk, Day 5) was 39.15 ± 1.15% of starting body weight and the Survival rate (coronavirus OC43; 12.5 mpk, Day 6) was 100%. The “Weight changes (Percent of starting body weight)” value (coronavirus OC43; 12.5 mpk, Day 6) was 42.61 ± 1.80% of starting body weight, the Survival rate (coronavirus OC43; 12.5 mpk, Day 7) was 100% and the “Weight changes (Percent of starting body weight)” value (coronavirus OC43; 12.5 mpk, Day 7) was 49.30 ± 2.16% of starting body weight. The Survival rate (coronavirus OC43; 12.5 mpk, Day 8) was 100%, the “Weight changes (Percent of starting body weight)” value (coronavirus OC43; 12.5 mpk, Day 8) was 55.56 ± 2.05% of starting body weight and the Survival rate (coronavirus OC43; 12.5 mpk, Day 9) was 100%. The “Weight changes (Percent of starting body weight)” value (coronavirus OC43; 12.5 mpk, Day 9) was 57.80 ± 4.27% of starting body weight, the Survival rate (coronavirus OC43; 12.5 mpk, Day 10) was 100% and the “Weight changes (Percent of starting body weight)” value (coronavirus OC43; 12.5 mpk, Day 10) was 60.74 ± 6.34% of starting body weight. The Survival rate (coronavirus OC43; 12.5 mpk, Day 11) was 100%, the “Weight changes (Percent of starting body weight)” value (coronavirus OC43; 12.5 mpk, Day 11) was 60.39 ± 8.87% of starting body weight and the Survival rate (coronavirus OC43; 12.5 mpk, Day 12) was 100%. For the same compound, the “Weight changes (Percent of starting body weight)” value (coronavirus OC43; 12.5 mpk, Day 12) was 65.10 ± 10.85% of starting body weight, the Survival rate (coronavirus OC43; 12.5 mpk, Day 13) was 100% and the “Weight changes (Percent of starting body weight)” value (coronavirus OC43; 12.5 mpk, Day 13) was 76.18 ± 9.69% of starting body weight. For the same compound, the Survival rate (coronavirus OC43; 12.5 mpk, Day 14) was 100%, the “Weight changes (Percent of starting body weight)” value (coronavirus OC43; 12.5 mpk, Day 14) was 96.72 ± 10.96% of starting body weight and the Survival rate (coronavirus OC43; 25 mpk, Day 1) was 100%. The “Weight changes (Percent of starting body weight)” value (coronavirus OC43; 25 mpk, Day 1) was 6.45 ± 1.94% of starting body weight, the Survival rate (coronavirus OC43; 25 mpk, Day 2) was 100% and the “Weight changes (Percent of starting body weight)” value (coronavirus OC43; 25 mpk, Day 2) was 12.35 ± 1.74% of starting body weight. For the same compound, the Survival rate (coronavirus OC43; 25 mpk, Day 3) was 100%, the “Weight changes (Percent of starting body weight)” value (coronavirus OC43; 25 mpk, Day 3) was 22.61 ± 2.41% of starting body weight and the Survival rate (coronavirus OC43; 25 mpk, Day 4) was 100%. For the same compound, the “Weight changes (Percent of starting body weight)” value (coronavirus OC43; 25 mpk, Day 4) was 28.78 ± 2.69% of starting body weight, the Survival rate (coronavirus OC43; 25 mpk, Day 5) was 100% and the “Weight changes (Percent of starting body weight)” value (coronavirus OC43; 25 mpk, Day 5) was 34.72 ± 2.23% of starting body weight. For the same compound, the Survival rate (coronavirus OC43; 25 mpk, Day 6) was 100%, the “Weight changes (Percent of starting body weight)” value (coronavirus OC43; 25 mpk, Day 6) was 39.95 ± 2.01% of starting body weight and the Survival rate (coronavirus OC43; 25 mpk, Day 7) was 100%. For the same compound, the “Weight changes (Percent of starting body weight)” value (coronavirus OC43; 25 mpk, Day 7) was 45.35 ± 2.00% of starting body weight, the Survival rate (coronavirus OC43; 25 mpk, Day 8) was 100% and the “Weight changes (Percent of starting body weight)” value (coronavirus OC43; 25 mpk, Day 8) was 49.97 ± 1.91% of starting body weight. The Survival rate (coronavirus OC43; 25 mpk, Day 9) was 100%, the “Weight changes (Percent of starting body weight)” value (coronavirus OC43; 25 mpk, Day 9) was 55.69 ± 2.31% of starting body weight and the Survival rate (coronavirus OC43; 25 mpk, Day 10) was 100%. The “Weight changes (Percent of starting body weight)” value (coronavirus OC43; 25 mpk, Day 10) was 62.00 ± 2.26% of starting body weight, the Survival rate (coronavirus OC43; 25 mpk, Day 11) was 100% and the “Weight changes (Percent of starting body weight)” value (coronavirus OC43; 25 mpk, Day 11) was 72.13 ± 3.02% of starting body weight. For the same compound, the Survival rate (coronavirus OC43; 25 mpk, Day 12) was 100%, the “Weight changes (Percent of starting body weight)” value (coronavirus OC43; 25 mpk, Day 12) was 87.49 ± 3.63% of starting body weight and the Survival rate (coronavirus OC43; 25 mpk, Day 13) was 100%. The “Weight changes (Percent of starting body weight)” value (coronavirus OC43; 25 mpk, Day 13) was 95.42 ± 4.90% of starting body weight, the Survival rate (coronavirus OC43; 25 mpk, Day 14) was 100% and the “Weight changes (Percent of starting body weight)” value (coronavirus OC43; 25 mpk, Day 14) was 118.37 ± 5.15% of starting body weight.

From patent publication US20250163029A1, “PYRIDONE OR PYRIMIDONE DERIVATIVE AND APPLICATION THEREOF” (Medshine Discovery Inc., priority 2022, published 2025)
